Experimental data taken from patent US8754242B2, “Herbicides” (Syngenta Crop Protection LLC, priority 2007, dated 2014).

Assays:
Type in all cases: in vivo
[1] = system: Echinochloa crus-galli (ECHCG); assay: Test Example 1 post-emergence herbicidal activity; details: 360 h, rate 125 g/ha, evaluated 15 days later, read-out: Post-emergence activity ECHCG (100=total damage to plant; 0=no damage to plant)
Method in brief: (§1)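 Once sown in standard soil, pots received an aqueous spray of the formulated active ingredient, either after one day or after ten days of controlled glasshouse growth. Plants then grew under optimum greenhouse conditions. Herbicidal effect was assessed visually 15 (post-emergence) or 20 (pre-emergence) days later, 100 meaning total plant damage.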

[2] = system: Digitaria sanguinalis (DIGSA); assay: Test Example 1 post-emergence herbicidal activity; details: 360 h, rate 125 g/ha, evaluated 15 days later, read-out: Post-emergence activity DIGSA (100=total damage to plant; 0=no damage to plant)
Method in brief: as §1

[3] = system: Lolium perenne (LOLPE); assay: Test Example 1 post-emergence herbicidal activity; details: 360 h, rate 125 g/ha, evaluated 15 days later, read-out: Post-emergence activity LOLPE (100=total damage to plant; 0=no damage to plant)
Method in brief: as §1

[4] = system: Alopecurus myosuroides (ALOMY); assay: Test Example 1 post-emergence herbicidal activity; details: 360 h, rate 125 g/ha, evaluated 15 days later, read-out: Post-emergence activity ALOMY (100=total damage to plant; 0=no damage to plant)
Method in brief: as §1

[5] = system: Avena fatua (AVEFA); assay: Test Example 1 post-emergence herbicidal activity; details: 360 h, rate 125 g/ha, evaluated 15 days later, read-out: Post-emergence activity AVEFA (100=total damage to plant; 0=no damage to plant)
Method in brief: as §1

[6] = system: Setaria faberi (SETFA); assay: Test Example 1 post-emergence herbicidal activity; details: 360 h, rate 125 g/ha, evaluated 15 days later, read-out: Post-emergence activity SETFA (100=total damage to plant; 0=no damage to plant)
Method in brief: as §1

[7] = system: Echinochloa crus-galli (ECHCG); assay: Test Example 1 pre-emergence herbicidal activity; details: Echinochloa crus-galli, 480 h, rate 250 g/ha, evaluated 20 days later, read-out: Pre-emergence activity ECHCG (100=total damage to plant; 0=no damage to plant)
Method in brief: as §1

[8] = system: Digitaria sanguinalis (DIGSA); assay: Test Example 1 pre-emergence herbicidal activity; details: Digitaria sanguinalis, 480 h, rate 250 g/ha, evaluated 20 days later, read-out: Pre-emergence activity DIGSA (100=total damage to plant; 0=no damage to plant)
Method in brief: as §1

[9] = system: Lolium perenne (LOLPE); assay: Test Example 1 pre-emergence herbicidal activity; details: Lolium perenne, 480 h, rate 250 g/ha, evaluated 20 days later, read-out: Pre-emergence activity LOLPE (100=total damage to plant; 0=no damage to plant)
Method in brief: as §1

[10] = system: Alopecurus myosuroides (ALOMY); assay: Test Example 1 pre-emergence herbicidal activity; details: Alopecurus myosuroides, 480 h, rate 250 g/ha, evaluated 20 days later, read-out: Pre-emergence activity ALOMY (100=total damage to plant; 0=no damage to plant)
Method in brief: as §1

[11] = system: Avena fatua (AVEFA); assay: Test Example 1 pre-emergence herbicidal activity; details: Avena fatua, 480 h, rate 250 g/ha, evaluated 20 days later, read-out: Pre-emergence activity AVEFA (100=total damage to plant; 0=no damage to plant)
Method in brief: as §1

[12] = system: Setaria faberi (SETFA); assay: Test Example 1 pre-emergence herbicidal activity; details: Setaria faberi, 480 h, rate 250 g/ha, evaluated 20 days later, read-out: Pre-emergence activity SETFA (100=total damage to plant; 0=no damage to plant)
Method in brief: as §1

Row | SMILES | pest or weed control at 125 g/ha [1] [%] | pest or weed control at 125 g/ha [2] [%] | pest or weed control at 125 g/ha [3] [%] | pest or weed control at 125 g/ha [4] [%] | pest or weed control at 125 g/ha [5] [%] | pest or weed control at 125 g/ha [6] [%] | pest or weed control at 250 g/ha [7] [%] | pest or weed control at 250 g/ha [8] [%] | pest or weed control at 250 g/ha [9] [%] | pest or weed control at 250 g/ha [10] [%] | pest or weed control at 250 g/ha [11] [%] | pest or weed control at 250 g/ha [12] [%]
1 | Cc1cc(C)c(C2=C(O)[C@@H]3[C@@H]4O[C@@H](C[C@H]4c4ccc(F)nc4)[C@@H]3C2=O)c(C)c1 [Example T129] | 100 | 80 | 70 | 80 | 80 | 100 | 100 | 90 | 90 | 100 | 90 | 100
2 | CCc1ccc(Br)cc1C1=C(O)[C@H]2[C@@H](C1=O)[C@@H]1CC[C@H]2O1 [Example T134] | 70 | 20 | 20 | 20 | 20 | 50 | 20 | 50 | 70 | 60 | 20 | 0
3 | CCc1cc(C)cc(CC)c1C1=C(O)[C@@H]2[C@@H]3O[C@@H](C[C@H]3c3ccc(C)cc3Cl)[C@@H]2C1=O [Example T143] | 70 | 60 | 30 | 40 | 60 | 40 | 10 | 80 | 70 | 50 | 20 | 70
4 | CCc1cc(C)cc(CC)c1C1=C(O)[C@@H]2[C@@H]3O[C@@H](C[C@H]3c3ccc(C)c(F)c3)[C@@H]2C1=O [Example T146] | 100 | 70 | 90 | 80 | 80 | 70 | 80 | 80 | 90 | 70 | 60 | 80
5 | CCc1cc(C)cc(CC)c1C1=C(O)[C@@H]2[C@@H]3O[C@@H](C[C@H]3c3cc(F)ccc3C)[C@@H]2C1=O [Example T147] | 90 | 100 | 40 | 90 | 90 | 70 | 90 | 40 | 40 | 40 | 0 | 60
6 | CCc1cc(C)cc(CC)c1C1=C(O)[C@@H]2[C@@H]3O[C@@H](C[C@H]3c3ccc(F)c(Cl)c3)[C@@H]2C1=O [Example T149] | 100 | 80 | 70 | 80 | 90 | 70 | 90 | 70 | 80 | 90 | 60 | 80
7 | CCc1cc(C)cc(CC)c1C1=C(O)[C@@H]2[C@@H]3O[C@@H](C[C@H]3c3ccc(Cl)c(Cl)c3)[C@@H]2C1=O [Example T150] | 100 | 30 | 40 | 60 | 60 | 90 | 40 | 0 | 30 | 0 | 0 | 0
8 | CCc1cc(C)cc(CC)c1C1=C(O)[C@@H]2[C@@H]3O[C@@H](C[C@H]3c3ccc(C)c(Cl)c3)[C@@H]2C1=O [Example T151] | 80 | 70 | 30 | 80 | 80 | 10 | 40 | 80 | 60 | 50 | 20 | 20
9 | CCc1cc(C)cc(CC)c1C1=C(O)[C@@H]2[C@@H]3O[C@@H](C[C@H]3c3cccc(OC)c3)[C@@H]2C1=O [Example T153] | 70 | 30 | 50 | 50 | 80 | 20 | 70 | 60 | 80 | 70 | 70 | 70
10 | CCc1cc(C)cc(CC)c1C1=C(O)[C@@H]2[C@@H]3O[C@@H](C[C@H]3c3cccc(C(F)(F)F)c3)[C@@H]2C1=O [Example T154] | 100 | 70 | 60 | 90 | 60 | 70 | 100 | 70 | 80 | 70 | 50 | 70
11 | CCc1cc(C)cc(CC)c1C1=C(O)[C@@H]2[C@@H]3O[C@@H](C[C@H]3c3ccc(Cl)cc3)[C@@H]2C1=O [Example T155] | 100 | 100 | 60 | 90 | 70 | 100 | 60 | 70 | 80 | 60 | 50 | 60
12 | CCc1cc(C)cc(CC)c1C1=C(O)C2[C@@H](C1=O)[C@@H]1C[C@@H](c3ccc(OC)cc3)[C@H]2O1 (stereo partly drawn) [Example T156] | 100 | 70 | 70 | 90 | 80 | 100 | 70 | 70 | 70 | 70 | 60 | 70
13 | CCc1cc(C)cc(CC)c1C1=C(O)[C@@H]2[C@@H]3O[C@@H](C[C@H]3c3ccc([N+](=O)[O-])cc3)[C@@H]2C1=O [Example T158] | 100 | 100 | 80 | 90 | 90 | 100 | 50 | 70 | 70 | 60 | 50 | 70
